Test results as given in patent EP2982983B1, “METHOD FOR DRUG SUSCEPTIBILITY TESTING OF MYCOBACTERIUM TUBERCULOSIS BY ELECTRON PARAMAGNETIC RESONANCE” (priority 2014, dated 2016).

How the values were obtained:
[1] = tested on: M. tuberculosis H37Rv (ATCC 27294); assay type: cell-based, Mycobacterium tuberculosis; conditions: one day (24 h) exposure to the Cmax of the drug (rifampicin 8 µg/ml, moxifloxacin 4 µg/ml, amikacin 8 µg/ml), compared with control without drug
[2] = species not given; cited from earlier work

SMILES	rate of CP^• formation [1]	Cmax value (maximum drug concentration in serum) [2] [ng/mL]
NCC[C@H](O)C(=O)N[C@@H]1C[C@H](N)[C@@H](O[C@H]2O[C@H](CN)[C@@H](O)[C@H](O)[C@H]2O)[C@H](O)[C@H]1O[C@H]1O[C@H](CO)[C@@H](O)[C@H](N)[C@H]1O [amikacin]	quite high rate	8000
COc1c(N2C[C@@H]3CCCN[C@@H]3C2)c(F)cc2c(=O)c(C(=O)O)cn(C3CC3)c12 [moxifloxacin]		4000
CO[C@H]1/C=C/O[C@@]2(C)Oc3c(C)c(O)c4c(O)c(c(/C=N/N5CCN(C)CC5)c(O)c4c3C2=O)NC(=O)/C(C)=C\C=C\[C@H](C)[C@H](O)[C@@H](C)[C@@H](O)[C@@H](C)[C@H](OC(C)=O)[C@@H]1C [rifampicin]		8000
